Data taken from US7091201B2, “Arylalkane-sulfonamides having endothelin-antagonist activity” (Actelion Pharmaceuticals Ltd., priority 2000, dated 2006).

Columns and labels:
[1] = biological target: T1, human recombinant ETA receptors (Homo sapiens, UniProt P25101); assay: Inhibition of [125I]ET-1 binding to membranes from CHO cells carrying human ETA receptors
T1 construct: expressed in transfected cells; host or cells: CHO cells
T1 sequence (P25101 21-427): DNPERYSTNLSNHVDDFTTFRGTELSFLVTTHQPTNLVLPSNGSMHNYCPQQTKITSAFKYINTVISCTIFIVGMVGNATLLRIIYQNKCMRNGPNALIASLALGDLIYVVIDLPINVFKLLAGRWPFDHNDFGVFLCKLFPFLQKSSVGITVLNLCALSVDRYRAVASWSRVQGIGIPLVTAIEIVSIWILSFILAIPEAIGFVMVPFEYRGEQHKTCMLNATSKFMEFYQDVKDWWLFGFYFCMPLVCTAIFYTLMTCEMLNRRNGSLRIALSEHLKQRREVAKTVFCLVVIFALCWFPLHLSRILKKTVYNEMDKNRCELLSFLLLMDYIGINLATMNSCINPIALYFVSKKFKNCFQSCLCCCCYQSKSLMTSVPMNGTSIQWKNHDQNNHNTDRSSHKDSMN
Protocol: (§1) 1) Inhibition of Endothelin Binding to Membranes from CHO Cells Carrying Human ET Receptors:
(§2) For competition binding studies, membranes of CHO cells expressing human recombinant ETA or ETB receptors were used.
(§3) The assay was performed in 200 uL 50 mM Tris/HCl buffer, pH 7.4, including 25 mM MnCl2, 1 mM EDTA and 0.5% (w/v) BSA in polypropylene microtiter plates. […] After 2 h, the membranes were filtered on filterplates containing GF/C filters (Unifilterplates from Can berra Packard S. A. Zürich, Switzerland). To each well, 50 uL of scintillation cocktail was added (MicroScint 20, Can berra Packard S. A. Zürich, Switzerland) and the filter plates counted in a microplate counter (TopCount, Can berra Packard S. A. Zürich, Switzerland).
(§4) All the test compounds were dissolved, diluted and added in DMSO.

[2] = biological target: T2, human recombinant ETB receptors (Homo sapiens, UniProt P24530); assay: Inhibition of [125I]ET-1 binding to membranes from CHO cells carrying human ETB receptors
T2 construct: expressed in transfected cells; host or cells: CHO cells
T2 sequence (P24530 27-442): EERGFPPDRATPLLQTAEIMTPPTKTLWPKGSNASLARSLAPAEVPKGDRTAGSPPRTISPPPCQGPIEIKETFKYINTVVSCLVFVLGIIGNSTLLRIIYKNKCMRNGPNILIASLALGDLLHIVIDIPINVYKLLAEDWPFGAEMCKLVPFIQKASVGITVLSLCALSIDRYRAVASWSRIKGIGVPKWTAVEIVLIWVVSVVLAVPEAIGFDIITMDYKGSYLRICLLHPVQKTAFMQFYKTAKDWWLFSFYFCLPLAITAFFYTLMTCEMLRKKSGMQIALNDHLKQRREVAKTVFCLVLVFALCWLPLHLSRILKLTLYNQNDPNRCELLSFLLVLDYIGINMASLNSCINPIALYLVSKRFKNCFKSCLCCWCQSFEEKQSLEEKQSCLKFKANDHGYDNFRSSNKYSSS
Protocol: as §1, §2, §3, §4

[3] = biological target: T3, rat aortic rings (ETA receptors) (Rattus norvegicus, UniProt P26684); assay: Inhibition of endothelin-1-induced contractions on isolated rat aortic rings; format: cell-based; conditions: read-out: pA2 (aortic rings) (converted)
T3 construct: from tissue; host or cells: thoracic aorta rings of adult Wistar rats, endothelium removed
T3 sequence (P26684 21-426): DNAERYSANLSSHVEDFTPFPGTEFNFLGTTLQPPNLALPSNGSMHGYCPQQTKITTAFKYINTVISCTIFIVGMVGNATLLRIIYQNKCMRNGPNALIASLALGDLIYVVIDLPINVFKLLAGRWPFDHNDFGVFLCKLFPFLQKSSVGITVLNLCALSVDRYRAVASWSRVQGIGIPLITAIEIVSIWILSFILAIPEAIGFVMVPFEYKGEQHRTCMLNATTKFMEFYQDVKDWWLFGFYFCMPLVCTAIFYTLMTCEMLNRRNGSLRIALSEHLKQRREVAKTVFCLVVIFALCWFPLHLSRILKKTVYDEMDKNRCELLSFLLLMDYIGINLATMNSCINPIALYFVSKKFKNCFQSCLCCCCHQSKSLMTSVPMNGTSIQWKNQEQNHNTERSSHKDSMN
Protocol: (§5) 2) Inhibition of Endothelin-Induced Contractions on Isolated Rat Aortic Rings (ETA Receptors) and Rat Tracheal Rings (ETB Receptors):
(§6) Adult Wistar rats were anesthetized and exsanguinated. The thoracic aorta or trachea were excised, dissected and cut in 3–5 mm rings. The endothelium/epithelium was removed by gentle rubbing of the intimal surface. […] The rings were connected to force transducers and isometric tension was recorded (EMKA Technologies SA, Paris, France). The rings were stretched to a resting tension of 3 g (aorta) or 2 g (trachea). […] The functional inhibitory potency of the test compound was assessed by calculating the concentration ratio, i.e. the shift to the right of the EC50 induced by different concentrations of test compound. EC50 is the concentration of endothelin needed to get a half-maximal contraction, pA2 is the negative logarithm of the antagonist concentration which induces a two-fold shift in the EC50 value.

[4] = biological target: T4, rat tracheal rings (ETB receptors) (Rattus norvegicus, UniProt P21451); assay: Inhibition of sarafotoxin S6c-induced contractions on isolated rat tracheal rings; format: cell-based
T4 construct: from tissue; host or cells: tracheal rings of adult Wistar rats, epithelium removed
T4 sequence (P21451 27-442): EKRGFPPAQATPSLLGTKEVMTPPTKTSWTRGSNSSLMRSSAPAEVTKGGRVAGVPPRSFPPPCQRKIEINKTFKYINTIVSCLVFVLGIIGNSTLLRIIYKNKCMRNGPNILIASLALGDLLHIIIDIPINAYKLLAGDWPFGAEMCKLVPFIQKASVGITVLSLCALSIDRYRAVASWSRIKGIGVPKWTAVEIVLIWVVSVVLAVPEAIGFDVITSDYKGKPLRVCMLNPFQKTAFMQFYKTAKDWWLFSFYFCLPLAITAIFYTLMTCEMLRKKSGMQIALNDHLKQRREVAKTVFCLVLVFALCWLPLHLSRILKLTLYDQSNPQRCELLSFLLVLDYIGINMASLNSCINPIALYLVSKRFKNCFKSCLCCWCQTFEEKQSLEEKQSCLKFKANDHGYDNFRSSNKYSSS
Protocol: as §5, §6

| Structure (SMILES) | IC50 [1] [nM] | IC50 [2] [nM] | Kb [3] [nM] | Kb [4] [nM] |
| --- | --- | --- | --- | --- |
| Cc1ccc(-c2c(NS(=O)(=O)CCc3ccccc3)nc(-c3ncccn3)nc2OCCOc2ncc(Cl)cn2)cc1 [Example 13] | 4 | 3680 |  |  |
| COc1ccccc1Oc1c(NS(=O)(=O)Cc2ccc(C)cc2)nc(-c2ccncc2)nc1OCCOc1ncc(Br)cn1 [Example 71] | 115 | > 10000 |  |  |
| Cc1ccc(-c2c(NS(=O)(=O)CCc3ccccc3)ncnc2OCCOc2ncc(Br)cn2)cc1 [Example 7] | 4 | 3310 | 1.48 | 85.1 |
| Cc1ccc(-c2c(NS(=O)(=O)CCc3ccccc3)nc(-c3ncccn3)nc2OCCOc2ncc(Br)cn2)cc1 [Example 14] | 6 | 2230 |  |  |
| Cc1ccc(-c2c(NS(=O)(=O)CCc3ccccc3)ncnc2OCCOc2ncccn2)cc1 [Example 1, 2-phenyl-ethanesulfonic acid {6-[2-(pyrimidin-2-yloxy)-ethoxy]-5-p-tolyl-pyrimidin-4-yl}-amide] | 27 | 6650 |  |  |
| Cc1ccc(-c2c(NS(=O)(=O)CCc3ccccc3)ncnc2OCCOc2ncc(C)cn2)cc1 [Example 8] |  |  | 37.2 |  |
| Cc1ccc(-c2c(NS(=O)(=O)CCc3cccs3)ncnc2OCCOc2ncc(Br)cn2)cc1 [Example 49] | 4 | 2490 |  |  |
| Cc1ccc(-c2c(NS(=O)(=O)CCc3ccccc3)nc(-c3ccncc3)nc2OCCOc2ncc(Br)cn2)cc1 [Example 10] | 9 | 2410 |  |  |
| COc1ccccc1Oc1c(NS(=O)(=O)CCc2ccccc2)nc(N2CCOCC2)nc1OCCOc1ncc(SC)cn1 [Example 39] | 3 | 261 |  |  |
| COc1ccccc1Oc1c(NS(=O)(=O)CCc2ccccn2)nc(-c2ccncc2)nc1OCCOc1ncc(Br)cn1 [Example 61] | 10 | 1140 | 14.8 | 85.1 |
| Cc1ccc(-c2c(NS(=O)(=O)CCc3ccccc3)ncnc2OCCOc2ccc(C(F)(F)F)cn2)cc1 [Example 2, 2-phenyl-ethanesulfonic acid {5-p-tolyl-6-[2-(5-trifluoromethyl-pyridin-2-yloxy)-ethoxy]-pyrimidin-4-yl}-amide] | 20 | 899 |  |  |
| Cc1ccc(-c2c(NS(=O)(=O)CCc3ccccc3)ncnc2OCCOc2ncc(Br)cn2)cc1C [Example 19] | 3 | 1930 |  |  |
| Cc1ccc(-c2c(NS(=O)(=O)CCCc3ccccc3)ncnc2OCCOc2ncc(Br)cn2)cc1 [Example 75] |  |  | 17.4 |  |
| O=S(=O)(CCc1cccs1)Nc1ncnc(OCCOc2ncc(Br)cn2)c1-c1ccc(Cl)cc1 [Example 52] | 5 | 1770 |  |  |
| COc1ccccc1Oc1c(NS(=O)(=O)CCc2ccccc2)nc(-c2ncccn2)nc1OCCOc1ncc(Br)cn1 [Example 5, 2phenylethanesulfonic acid {5-(2-methoxy-phenoxy)-6-[2-(5-bromopyrimidin-2-yloxy)-ethoxy]-2-(2-pyrimidinyl)-4-pyrimidinyl}-amide] | 3 |  | 4.17 |  |
| COc1cccc(Oc2c(NS(=O)(=O)CCc3ccccc3)ncnc2OCCOc2ncc(Br)cn2)c1 [Example 46] | 7 | 2360 |  |  |
| COc1cnc(OCCOc2ncnc(NS(=O)(=O)CCc3ccccc3)c2Oc2cccc(OC)c2)nc1 [Example 47] | 24 | 2720 |  |  |
| COc1cnc(OCCOc2nc(-c3ncccn3)nc(NS(=O)(=O)CCc3ccccc3)c2Oc2ccccc2OC)nc1 [Example 29] | 10 |  |  |  |
| COc1cnc(OCCOc2nc(-c3cnccn3)nc(NS(=O)(=O)CCc3ccccc3)c2Oc2ccccc2OC)nc1 [Example 34] |  |  | 21.4 |  |
